Measurements taken from US20240132464A1, “HETEROCYCLIC COMPOUNDS AS E3 LIGASE INHIBITORS” (Accutar Biotechnology Inc., priority 2022, published 2024).

Molecular target: T1, GID4 (Uniprot ID: Q81VV7, residues 124-289) (Homo sapiens, UniProt Q8IVV7)
T1 construct: GID4 (Uniprot ID: Q81VV7, residues 124-289)
T1 sequence (Q8IVV7 124-289): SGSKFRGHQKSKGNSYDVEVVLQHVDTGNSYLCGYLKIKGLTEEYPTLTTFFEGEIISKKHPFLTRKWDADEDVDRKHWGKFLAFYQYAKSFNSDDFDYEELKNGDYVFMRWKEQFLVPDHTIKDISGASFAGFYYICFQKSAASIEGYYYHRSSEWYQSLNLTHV
Test: GID4 competitive binding assay (AlphaScreen, GID4/degron peptide PGLW)
Details: 24 nM GID4, 48 nM biotinylated degron peptide PGLW, 4° C., read-out: IC50 (Inhibition of GID4/Degron binding by test compounds)
Method in brief: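 His-tagged human GID4 (residues 124-289, 24 nM) pre-incubated 2 h at 4 °C with 48 nM biotinylated PGLW peptide and compound in HEPES pH 7.5 buffer, 2% DMSO (final). AlphaScreen streptavidin donor/Ni-NTA acceptor beads added for 1 h; IC50 from nonlinear fit of % inhibition versus DMSO.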

**Q.** With CC(C)c1cc(N2CCNC(c3cnc4ccccn34)C2)nc(N)n1 (stereo not shown) [Compound 32, 4-(3-(imidazo[1,2-a]pyridin-3-yl)piperazin-1-yl)-6-isopropylpyrimidin-2-amine] as the molecule, how does the IC50 read?
**A.** Its IC50 is under 0.5 µM.

**Q.** How did the IC50 turn out when CC(C)c1cc(N2CCOC(c3cnc4ccccn34)C2)nc(N)n1 (racemic) [Compound 156, (R/S)-4-(2-(imidazo[1,2-a]pyridin-3-yl)morpholino)-6-isopropylpyrimidin-2-amine] was run?
**A.** Its IC50 is over 5 µM.

**Q.** How did the IC50 turn out when Nc1cc(N2CCNC(c3cc(C(F)(F)F)ccc3Br)C2)nc(N)n1 (single isomer, unassigned) [Compound 11, (R/S)-6-(3-(2-bromo-5-(trifluoromethyl)phenyl)piperazin-1-yl)pyrimidine-2,4-diamine] was run?
**A.** The IC50 was 0.5 to 5 µM.

**Q.** Which IC50 does the source give for CC(C)c1cc(N2CCC=C(c3ncn4ccccc34)C2)nc(N)n1 [Compound 238, 4-(5-(imidazo[1,5-a]pyridin-1-yl)-3,6-dihydropyridin-1(2H)-yl)-6-isopropylpyrimidin-2-amine] here?
**A.** Its IC50 is 0.5 to 5 µM.

**Q.** CC(C)c1cc(N2CCN(C)C(c3cnc4ccccn34)C2)nc(N)n1 (single isomer, unassigned) [Compound 105, (S/R)-4-(3-(imidazo[1,2-a]pyridin-3-yl)-4-methylpiperazin-1-yl)-6-isopropylpyrimidin-2-amine] was tested. Which IC50 did it give?
**A.** Its IC50 is over 5 µM.

**Q.** Which IC50 does the source give for Nc1nc(NC2CC2)cc(N2CCN(CCO)[C@@H](c3ccccc3Br)C2)n1 (racemic) [Compound 45, (S/R)-2-(4-(2-amino-6-(cyclopropylamino)pyrimidin-4-yl)-2-(2-bromophenyl)piperazin-1-yl)ethan-1-ol] here?
**A.** Its IC50 is under 0.5 µM.

**Q.** With CC(C)c1cc(N2CCCC(c3n[nH]c4ccccc34)C2)nc(N)n1 (stereo not shown) [Compound 251, 4-(3-(1H-indazol-3-yl)piperidin-1-yl)-6-isopropylpyrimidin-2-amine] as the molecule, how does the IC50 read?
**A.** Its IC50 is 0.5 to 5 µM.

**Q.** Which IC50 does the source give for CN(C)CCCNC(=O)c1cnc(-c2cc(O)c3ncccc3c2)cn1 [Compound 276, N-(3-(dimethylamino)propyl)-5-(8-hydroxyquinolin-6-yl)pyrazine-2-carboxamide] here?
**A.** The IC50 was under 0.5 µM.

**Q.** CNc1cc(N2CCCC(c3cnc4ccccn34)C2)nc(NC)n1 (racemic) [Compound 124, (R/S)-6-(3-(imidazo[1,2-a]pyridin-3-yl)piperidin-1-yl)-N2,N4-dimethylpyrimidine-2,4-diamine] was tested. Which IC50 did it give?
**A.** Its IC50 is 0.5 to 5 µM.

**Q.** With CN(C)CCNC(=O)c1n[nH]c2ccc(-c3ccc4ncnc(N)c4c3)cc12 [Compound 329, 5-(4-aminoquinazolin-6-yl)-N-(2-(dimethylamino)ethyl)-1H-indazole-3-carboxamide] as the molecule, how does the IC50 read?
**A.** Its IC50 is 0.5 to 5 µM.

**Q.** CC(C)c1cc(N2CCN[C@H](c3cnc4ccccn34)C2)c2nc[nH]c2n1 (stereo in doubt) [Compound 369, (S/R)-7-(3-(imidazo[1,2-a]pyridin-3-yl)piperazin-1-yl)-5-isopropyl-3H-imidazo[4,5-b]pyridine] was tested. Which IC50 did it give?
**A.** The IC50 was under 0.5 µM.

**Q.** How did the IC50 turn out when CNc1cc(N2CCN[C@@H](c3ccccc3)C2)nc(N)n1 (racemic) [Compound 129, (S/R)-N4-methyl-6-(3-phenylpiperazin-1-yl)pyrimidine-2,4-diamine] was run?
**A.** Its IC50 is 0.5 to 5 µM.

**Q.** For O=C(c1cccc(-c2cc(O)c3ncccc3c2)c1)N1CCCC1 [Compound 293, (3-(8-hydroxyquinolin-6-yl)phenyl)(pyrrolidin-1-yl)methanone], which IC50 is on record?
**A.** Its IC50 is 0.5 to 5 µM.

**Q.** For CNc1nc(N)cc(N2CCCC(c3cnc4ccccn34)C2)n1 (racemic) [Compound 117, (S/R)-6-(3-(imidazo[1,2-a]pyridin-3-yl)piperidin-1-yl)-N2-methylpyrimidine-2,4-diamine], which IC50 is on record?
**A.** Its IC50 is 0.5 to 5 µM.

**Q.** How did the IC50 turn out when CN1CCN(CCc2cccc(-c3ccc4ccnc(N)c4c3)c2)CC1 [Compound 344, 7-(3-(2-(4-methylpiperazin-1-yl)ethyl)phenyl)isoquinolin-1-amine] was run?
**A.** The IC50 was over 5 µM.

**Q.** Nc1nc(NCC2CC2)cc(N2CCOC(c3ccccc3Br)C2)n1 (single isomer, unassigned) [Compound 78, R or S-6-(2-(2-bromophenyl)morpholino)-N^4-(cyclopropylmethyl)pyrimidine-2,4-diamine] was tested. Which IC50 did it give?
**A.** The IC50 was under 0.5 µM.

**Q.** Which IC50 does the source give for Nc1nc(N2CCNC(c3ccccc3Br)C2)c2[nH]ccc2n1 (single isomer, unassigned) [Compound 42, (R/S)-4-(3-(2-bromophenyl)piperazin-1-yl)-5H-pyrrolo[3,2-d]pyrimidin-2-amine] here?
**A.** The IC50 was over 5 µM.

**Q.** For CN(C)CCNC(=O)c1ccc(-c2cc(O)c3ncnc(N)c3c2)cc1 [Compound 267, 4-(4-amino-8-hydroxyquinazolin-6-yl)-N-(2-(dimethylamino)ethyl)benzamide], which IC50 is on record?
**A.** Its IC50 is under 0.5 µM.

**Q.** With Nc1cc(N2CCCC(O)(c3ccccc3Br)C2)nc(N)n1 (stereo not shown) [Compound 234, 3-(2-bromophenyl)-1-(2,6-diaminopyrimidin-4-yl)piperidin-3-ol] as the molecule, how does the IC50 read?
**A.** Its IC50 is 0.5 to 5 µM.

**Q.** CNc1cc(N2CCCC(c3cnc4ccccn34)C2)nc(C(C)C)n1 (single isomer, unassigned) [Compound 126, (R/S)-6-(3-(imidazo[1,2-a]pyridin-3-yl)piperidin-1-yl)-2-isopropyl-N-methylpyrimidin-4-amine] was tested. Which IC50 did it give?
**A.** The IC50 was under 0.5 µM.

**Q.** Cn1nccc1-c1cc(N2CC3CC(C2)N3)nc2c(-c3cc[nH]n3)nccc12 [Compound 365, 3-(4-(1-methyl-1H-pyrazol-5-yl)-8-(1H-pyrazol-3-yl)-1,7-naphthyridin-2-yl)-3,6-diazabicyclo[3.1.1]heptane] was tested. Which IC50 did it give?
**A.** Its IC50 is 0.5 to 5 µM.

**Q.** CN(C)CCCNC(=O)c1ncc(-c2cc(O)c3ncccc3c2)[nH]1 [Compound 275, N-(3-(dimethylamino)propyl)-5-(8-hydroxyquinolin-6-yl)-1H-imidazole-2-carboxamide] was tested. Which IC50 did it give?
**A.** The IC50 was under 0.5 µM.

**Q.** CN(C)CCCNC(=O)c1ccc(-c2cc(O)c3ncccc3n2)cc1 [Compound 304, N-(3-(dimethylamino)propyl)-4-(4-hydroxy-1,5-naphthyridin-2-yl)benzamide] was tested. Which IC50 did it give?
**A.** Its IC50 is 0.5 to 5 µM.

**Q.** With CN(C)CCCNC(=O)c1ccc(-c2cc(O)c3ncccc3c2)s1 [Compound 296, N-(3-(dimethylamino)propyl)-5-(8-hydroxyquinolin-6-yl)thiophene-2-carboxamide] as the molecule, how does the IC50 read?
**A.** Its IC50 is under 0.5 µM.

**Q.** With CCOc1ccc(Br)c(C2CN(c3cc(N)nc(N)n3)CCN2)c1 (single isomer, unassigned) [Compound 23, (R/S)-6-(3-(2-bromo-5-ethoxyphenyl)piperazin-1-yl)pyrimidine-2,4-diamine] as the molecule, how does the IC50 read?
**A.** The IC50 was 0.5 to 5 µM.

**Q.** With CC(C)c1cc(N2CCOC(c3ccccc3Br)C2)nc(N)n1 (racemic) [Compound 158, (R/S)-4-(2-(2-bromophenyl)morpholino)-6-isopropylpyrimidin-2-amine] as the molecule, how does the IC50 read?
**A.** Its IC50 is over 5 µM.

**Q.** With Nc1cc(N2CCCC(c3ncn4ccccc34)C2)nc(N)n1 (stereo not shown) [Compound 225, 6-(3-(imidazo[1,5-a]pyridin-1-yl)piperidin-1-yl)pyrimidine-2,4-diamine] as the molecule, how does the IC50 read?
**A.** Its IC50 is 0.5 to 5 µM.

**Q.** With NC(=O)CCC1CCCN(c2nc(N)nc3c2CSC3)C1 (stereo not shown) [Compound 201, 3-(1-(2-amino-5,7-dihydrothieno[3,4-d]pyrimidin-4-yl)piperidin-3-yl)propanamide] as the molecule, how does the IC50 read?
**A.** The IC50 was over 5 µM.

**Q.** How did the IC50 turn out when Nc1cc(N2CCO[C@@](CO)(c3ccccc3Br)C2)nc(N)n1 (stereo in doubt) [Compound 37, (S/R)-(2-(2-bromophenyl)-4-(2,6-diaminopyrimidin-4-yl)morpholin-2-yl)methanol] was run?
**A.** Its IC50 is under 0.5 µM.

**Q.** For CNCCCNC(=O)c1ccc(-c2cc(O)c3ncccc3c2)cc1 [Compound 303, 4-(8-hydroxyquinolin-6-yl)-N-(3-(methylamino)propyl)benzamide], which IC50 is on record?
**A.** The IC50 was under 0.5 µM.

**Q.** With Nc1nc(NC2CC2)nc(N2CCN(CCO)C(c3ccccc3Br)C2)n1 (stereo not shown) [Compound 53, 2-(4-(4-amino-6-(cyclopropylamino)-1,3,5-triazin-2-yl)-2-(2-bromophenyl)piperazin-1-yl)ethan-1-ol] as the molecule, how does the IC50 read?
**A.** Its IC50 is over 5 µM.

**Q.** With Cn1nccc1C1CCCN(c2nc(N)nc3c2CCC3)C1 (stereo not shown) [Compound 215, 4-(3-(1 methyl-1H-pyrazol-5-yl)piperidin-1-yl)-6,7-dihydro-5H-cyclopenta[d]pyrimidin-2-amine] as the molecule, how does the IC50 read?
**A.** The IC50 was over 5 µM.

**Q.** How did the IC50 turn out when CC(C)c1cc(N2CC[C@@H](F)[C@@H](c3ccccc3Br)C2)nc(N)n1 [Compound 221, 4-((3S,4R)-3-(2-bromophenyl)-4-fluoropiperidin-1-yl)-6-isopropylpyrimidin-2-amine] was run?
**A.** Its IC50 is under 0.5 µM.

**Q.** With CN(C)CCCNC(=O)c1cc(-c2cc(O)c3ncccc3c2)co1 [Compound 283, N-(3-(dimethylamino)propyl)-4-(8-hydroxyquinolin-6-yl)furan-2-carboxamide] as the molecule, how does the IC50 read?
**A.** Its IC50 is under 0.5 µM.

**Q.** Which IC50 does the source give for Nc1cc(N2CCC(c3cnc4ccccn34)C2)nc(N)n1 (stereo not shown) [Compound 255, 6-(3-(imidazo[1,2-a]pyridin-3-yl)pyrrolidin-1-yl)pyrimidine-2,4-diamine] here?
**A.** The IC50 was 0.5 to 5 µM.

**Q.** CC(C)c1nc(N)cc(N2CCOC(c3ccccc3Br)C2)n1 (single isomer, unassigned) [Compound 73, (R/S)-6-(2-(2-bromophenyl)morpholino)-2-isopropylpyrimidin-4-amine] was tested. Which IC50 did it give?
**A.** The IC50 was 0.5 to 5 µM.

**Q.** How did the IC50 turn out when Nc1cc(N2CCCC(c3cnc4ncccn34)C2)nc(N)n1 (stereo not shown) [Compound 241, 6-(3-(imidazo[1,2-a]pyrimidin-3-yl)piperidin-1-yl)pyrimidine-2,4-diamine] was run?
**A.** Its IC50 is over 5 µM.

**Q.** Which IC50 does the source give for CN(C)CCCNC(=O)c1ccc(-c2cc(O)c3nc(N)ccc3c2)cc1 [Compound 261, 4-(2-amino-8-hydroxyquinolin-6-yl)-N-(3-(dimethylamino)propyl)benzamide] here?
**A.** The IC50 was under 0.5 µM.

**Q.** Which IC50 does the source give for CN(C)CCNC(=O)c1c2cc(-c3ccc4ccnc(N)c4c3)ccc2nn1C [Compound 360, 5-(1-aminoisoquinolin-7-yl)-N-(2-(dimethylamino)ethyl)-2-methyl-2H-indazole-3-carboxamide] here?
**A.** The IC50 was over 5 µM.

**Q.** Which IC50 does the source give for O=C(c1ccc(-c2cc(O)c3ncccc3c2)cc1)N1CCCC1 [Compound 301, (4-(8-hydroxyquinolin-6-yl)phenyl)(pyrrolidin-1-yl)methanone] here?
**A.** Its IC50 is 0.5 to 5 µM.
